Measured values: patent publication US11820755B2, “Uracil compound and use thereof” (Sumitomo Chemical Company, Limited, priority 2018, dated 2023)

Columns and labels:
[1] = system: barley scald fungi (Rhynchosporium secalis); assay: Titer plate growth test of barley scald fungi in potato broth medium (absorbance at 600 nm); type: cell-based; settings: 4.7 ppm, cultured at 18° C. for 7 days
Protocol: Each 1 μL of a solution containing the compound A at a predetermined concentration in dimethylsulfoxide was dispensed into a titer plate (96 wells), and then each 150 μL of potato broth medium containing suspension of spore of wheat leaf stripe fungi (Septoria tritici) was dispensed so that the concentration of the compound A was finally 4.7 ppm. The plate was cultured at 18° C. for 4 days, thereby allowing the wheat leaf stripe fungi to undergo proliferation, and the absorbance at 600 nm of each well of the titer plate was then measured to determine a degree of growth of the wheat leaf stripe fungi. The efficacy was calculated from the determined degree of growth by the below-mentioned “Equation 1”. Efficacy (%)=100×(X−Y)/X “Equation 1” wherein • X: Degree of fungal growth in non-treated area • Y: Degree of fungal growth in treated area The “Non-treated area” represents an area where a similar treatment procedure to that of the treated area except for not using the compound A is done. […] The plate was cultured at 18° C. for 7 days, thereby allowing the barley scald fungi to undergo proliferation, and the absorbance at 600 nm of each well of the titer plate was then measured to determine a degree of growth of the barley scald fungi. The efficacy was calculated from the determined degree of growth by the below-mentioned “Equation 1”. […]

[2] = system: wheat leaf stripe fungi (Septoria tritici); assay: Titer plate growth test of wheat leaf stripe fungi in potato broth medium (absorbance at 600 nm); type: cell-based; settings: cultured at 18° C. for 4 days
Protocol: Each 1 μL of a solution containing the compound A at a predetermined concentration in dimethylsulfoxide was dispensed into a titer plate (96 wells), and then each 150 μL of potato broth medium containing suspension of spore of wheat leaf stripe fungi (Septoria tritici) was dispensed so that the concentration of the compound A was finally 4.7 ppm. The plate was cultured at 18° C. for 4 days, thereby allowing the wheat leaf stripe fungi to undergo proliferation, and the absorbance at 600 nm of each well of the titer plate was then measured to determine a degree of growth of the wheat leaf stripe fungi. The efficacy was calculated from the determined degree of growth by the below-mentioned “Equation 1”. Efficacy (%)=100×(X−Y)/X “Equation 1” wherein • X: Degree of fungal growth in non-treated area • Y: Degree of fungal growth in treated area The “Non-treated area” represents an area where a similar treatment procedure to that of the treated area except for not using the compound A is done. Each 1 μL of a solution containing the compound A at a predetermined concentration in dimethylsulfoxide was dispensed into a titer plate (96 wells), and then each 150 μL of potato broth medium containing suspension of spore of wheat leaf stripe fungi was dispensed so that the concentration of the compound A was finally 1.2 ppm. The plate was cultured at 18° C. for 4 days, thereby allowing the wheat leaf stripe fungi to undergo proliferation, and the absorbance at 600 nm of each well of the titer plate was then measured to determine a degree of growth of the wheat leaf stripe fungi. The efficacy was calculated from the determined degree of growth by the below-mentioned “Equation 1”. As a result, the efficacy was 53%. The test was carried out according to Test Example 1 using the compound B instead of the compound A. As a result, the efficacy was 45%. The test was carried out according to Test Example 2 using the compound B instead of the compound A. As a result, the efficacy was 12%.

[3] = 1.2 ppm, wheat leaf stripe fungi

| Compound | Efficacy (%) [1] | Efficacy (%) [2, 3] | Efficacy (%) ([2]; 4.7 ppm, Septoria tritici) |
| --- | --- | --- | --- |
| COc1ncccc1Oc1cc(-n2c(=O)cc(C(F)(F)F)n(C)c2=O)c(F)cc1Cl [Compound B] | 41% | 12% | 45% |
| CCOc1ncccc1Oc1cc(-n2c(=O)cc(C(F)(F)F)n(C)c2=O)c(F)cc1Cl [Compound A] | 94% | 53% | 73% |
